Literature values, collected in article PMC11292818 (ACS Omega, 2024).

Target: acetylcholinesterase (AChE) (Homo sapiens, UniProt P22303)
Settings: read-out: IC50 against acetylcholinesterase

acetylcholinesterase (AChE), sequence (P22303 32-614, species assumed): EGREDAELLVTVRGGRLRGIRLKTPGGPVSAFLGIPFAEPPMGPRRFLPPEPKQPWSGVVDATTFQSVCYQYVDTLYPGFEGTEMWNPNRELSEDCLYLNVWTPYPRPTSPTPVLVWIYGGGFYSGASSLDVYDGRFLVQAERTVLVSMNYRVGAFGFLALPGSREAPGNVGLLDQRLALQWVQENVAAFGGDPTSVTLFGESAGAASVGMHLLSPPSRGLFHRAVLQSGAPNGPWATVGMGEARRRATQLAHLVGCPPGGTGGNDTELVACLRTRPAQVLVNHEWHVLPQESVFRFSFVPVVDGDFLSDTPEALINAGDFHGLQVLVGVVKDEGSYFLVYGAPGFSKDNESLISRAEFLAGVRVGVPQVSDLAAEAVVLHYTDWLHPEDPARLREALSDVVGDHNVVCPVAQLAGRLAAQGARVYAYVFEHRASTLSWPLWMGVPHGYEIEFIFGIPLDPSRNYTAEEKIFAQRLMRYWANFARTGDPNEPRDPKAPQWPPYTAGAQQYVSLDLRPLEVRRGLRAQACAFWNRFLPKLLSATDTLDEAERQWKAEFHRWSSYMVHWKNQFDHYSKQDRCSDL

| Structure (SMILES) | IC50 |
| --- | --- |
| COc1cc(O)c(OC)c(O)c1C(=O)/C=C/c1ccccc1 [Compound 3, 2′,4′-dihydroxy-3′,6′-dimethoxychalcone] | 20.1 µM |
| CC(C)=CCc1c(O)ccc(C(=O)/C=C/c2ccc(O)cc2)c1O [Compound 4, isobavachalcone] | 18.3 µM |
